Assay results reported in patent US20130310326A1, “Histatin for Corneal Wound Healing and Ocular Surface Disease” (RAPID PATHOGEN SCREENING, INC., priority 2012, published 2013).

System: corneal wounds (epithelial defects in the right eye)
Assay: Corneal wound healing in rabbits (epithelial defect, fluorescein staining, computerized area determination)
Assay type: in vivo, New Zealand White rabbits
Details: for Percentage of 1 hour post wound size: approximate, without standard deviation
Experimental: The study disclosed herein evaluates and quantifies the wound healing effects of histatins on the ocular surface of New Zealand White rabbits.
Epithelial defects are created in the right eye (oculus dexter, OD) of 12 New Zealand White rabbits. Due to animal regulations, bilateral wounding is not permitted. After the epithelial defects are made, the rabbits are randomized into treatment groups. Two (2) groups are treated with different cyclized histatin concentrations: 0.1 μg/ml and 10 μg/ml dissolved into an ophthalmic artificial tear preparation and delivered to the rabbits as an eye drop three times daily. Histatins known in the art, including, but not limited to, amino acid SEQ. ID. NOs. 1 through 33, which include Hst-1 (SEQ. ID. NO. 4), Hst-2 (SEQ. ID. NO. 5), Hst-3 (SEQ. ID. NO. 6), Hst-5 (SEQ. ID. NO. 30), and sortase cyclized histatin (SEQ. ID. NO. 33), may be used in these studies or in treatment protocols. […] This control group should receive the same vehicle identical to the other two groups but without histatin. An over-the-counter artificial tear preferably serves as the vehicle. The initial study included four (4) animals/group in three (3) groups, for a total of twelve rabbits.
Each rabbit group is preferably given moxifloxicin treatment to prevent infection.
The corneal wounds are then evaluated daily for the corneal wound healing abilities of histatin via fluorescein staining, fluorescent slit lamp biomicrophotography and computerized area determination. Evaluators are masked to the therapeutic treatment given to the rabbits. After healing, two (2) animals from each group are euthanized, and the corneas collected for histological processing (H&E staining with subsequent evaluation by veterinary histopathologist). The decision to perform histopathologic analysis after tissue procurement is made only if there is proven difference in healing between the different treatment groups and the controls. At study termination (study preferably continues for seven days), the remaining animals are euthanized.
The histatin used in this study was cyclized histatin 1. The histatin 1 used was a sortase cyclized histatin with amino acid SEQ. ID. NO.

## cyclo(DNLPETGGDSHEKRHHGYRRKFHEKHHSHREFPFYGDYGSNYLY) [cyclized histatin 1]
0.1 μg/ml eye drop three times daily, 0 hours post wound
  corneal wound size: 112.7 ± 37.8 mm^2
0.1 μg/ml eye drop three times daily, 6 hours post wound
  corneal wound size: 96.2 ± 13.6 mm^2
0.1 μg/ml eye drop three times daily, 24 hours post wound
  corneal wound size: 77.5 ± 25.0 mm^2
0.1 μg/ml eye drop three times daily, 30 hours post wound
  corneal wound size: 48.8 ± 8.0 mm^2
0.1 μg/ml eye drop three times daily, 48 hours post wound
  corneal wound size: 2.7 ± 3.1 mm^2
0.1 μg/ml eye drop three times daily, 54 hours post wound
  corneal wound size: 0.00 ± 0.00 mm^2
0.1 μg/ml eye drop three times daily, 72 hours post wound
  corneal wound size: 0.00 ± 0.00 mm^2
0.1 μg/ml or 10 μg/ml versus vehicle control, rabbits
  healing activity of corneal wounds versus control: significant dose dependent accelerated healing activity
0.1 ug/ml, 0 hours post wound
  Percentage of 1 hour post wound size: 100%
0.1 ug/ml, 6 hours post wound
  Percentage of 1 hour post wound size: 85%
0.1 ug/ml, 24 hours post wound
  Percentage of 1 hour post wound size: 69%
0.1 ug/ml, 30 hours post wound
  Percentage of 1 hour post wound size: 43%
0.1 ug/ml, 48 hours post wound
  Percentage of 1 hour post wound size: 2%
0.1 ug/ml, 54 hours post wound
  Percentage of 1 hour post wound size: 0%
0.1 ug/ml, 72 hours post wound
  Percentage of 1 hour post wound size: 0%
10 μg/ml eye drop three times daily, 0 hours post wound
  corneal wound size: 88.4 ± 31.6 mm^2
10 μg/ml eye drop three times daily, 6 hours post wound
  corneal wound size: 74.0 ± 14.7 mm^2
10 μg/ml eye drop three times daily, 24 hours post wound
  corneal wound size: 51.4 ± 9.3 mm^2
10 μg/ml eye drop three times daily, 30 hours post wound
  corneal wound size: 37.7 ± 9.4 mm^2
10 μg/ml eye drop three times daily, 48 hours post wound
  corneal wound size: 0.00 ± 0.07 mm^2
10 μg/ml eye drop three times daily, 54 hours post wound
  corneal wound size: 0.00 ± 0.00 mm^2
10 μg/ml eye drop three times daily, 72 hours post wound
  corneal wound size: 0.00 ± 0.00 mm^2
10 ug/ml, 0 hours post wound
  Percentage of 1 hour post wound size: 100%
10 ug/ml, 6 hours post wound
  Percentage of 1 hour post wound size: 84%
10 ug/ml, 24 hours post wound
  Percentage of 1 hour post wound size: 58%
10 ug/ml, 30 hours post wound
  Percentage of 1 hour post wound size: 43%
10 ug/ml, 48 hours post wound
  Percentage of 1 hour post wound size: 0%
10 ug/ml, 54 hours post wound
  Percentage of 1 hour post wound size: 0%
10 ug/ml, 72 hours post wound
  Percentage of 1 hour post wound size: 0%
